Data on two molecules can be found in patent US20220296565A1, “Pharmaceutical compositions of Ovatodiolide and the use thereof” (priority 2019, published 2022).

pIC50: −log10 of the molar value.

Test [1] relates to SiHa HPV 16 positive cervical cancer cells. Briefly: MTT assay, SiHa cells. It is filed as cell-based, human. Particulars: 72 h. On the procedure:
(§1) SiHa and HeLa cervical cancer cells and Human Dermal Fibroblasts (HDF) were cultured in DMEM (Sigma-Aldrich, St Louis, Mo., USA). The medium was supplemented with 10% fetal calf serum (BioClear, Wiltshire, UK), 2 mM L-glutamin, 100 U/ml penicillin, 100 μg/ml streptomycin (Sigma-Aldrich).
(§2) The MTT assay is a colorimetric assay widely used to study cell viability. It is based on the ability of NAD(P)H-dependent cellular oxidoreductase enzymes to reduce the MTT tetrazolium dye. The cells were treated with 0, 5, 10, 20 & 40 μM of OVT & AA for 72 h and then MTT was added and cytotoxicity was analyzed by a plate reader.
(§3) HPV-positive cervical cancer cells, SiHa, Hela cells, patient-derived HPV positive head and neck cancer cells and non-cancer human fibroblasts were treated with OVT at the dose range of 0, 5, 10, 20 and 40 μM and subjected to MTT assay and IC50 values were determined.
A general note: Tetrazolium assays rely on reduction of a dye to a coloured formazan, in cell work by metabolically active cells.

Test [2] deals with HeLa HPV 18 positive cervical cancer cells. In words: MTT assay, HeLa cells. It is filed as cell-based, human. The note with it: 72 h. The procedure:
as §1, §2, §3

The test system of test [3] is SiHa cells. Briefly: Activated caspase-3 by flow cytometry. The test is classed as cell-based, human. The procedure: SiHa cells were treated with 0, 20 & 40 μM AA or OVT or solvent control for 24 & 48 h. Activated caspase-3 in cells was labeled with phyco-erythrin-conjugated antibody according to manufacturer's protocol (PE Active Caspase-3 Apoptosis Kit; BD Pharmingen, San Diego, Calif.) and analyzed by FACSCalibur flow cytometer (FL-2, FSC, BD Pharmingen).
We then incubated the cells with 0, 20 & 40 μM AA & OVT 24 and 48 hours, and determined the percentage of cells that contained activated caspase-3 as a measure of apoptosis.
(In general: In flow cytometry, cells or beads pass a laser one at a time.)

For test [4], the system named is non-cancer human fibroblast cells. Briefly: MTT assay, non-cancer human fibroblasts. Particulars: 72 h. The test is classed as cell-based. On the procedure:
as §2, §3

For test [5], the system named is UT-SCC 60B patient derived HPV positive Head and Neck cancer cells. In words: MTT assay, UT-SCC 60B. The test is classed as cell-based, human. The note with it: 72 h. The procedure:
as §2, §3

Test [6] has as its system UT-SCC 102 patient derived HPV positive Head and Neck cancer cells. In words: MTT assay, UT-SCC 102. The test is classed as cell-based, human. Particulars: UT-SCC 102, 72 h. The procedure:
as §2, §3

In test [7] the test system is UT-SCC 69 patient derived HPV positive Head and Neck cancer cells. In words: MTT assay, UT-SCC 69. The test is classed as cell-based, human. The note with it: UT-SCC 69, 72 h. The procedure: as §2, §3
In test [8] the test system is UT-SCC 65 patient derived HPV positive Head and Neck cancer cells. In words: MTT assay, UT-SCC 65. It is filed as cell-based, human. The note with it: UT-SCC 65, 72 h. On the procedure:
as §2, §3

The subject of test [9] is UT-SCC 60A patient derived HPV positive Head and Neck cancer cells. Briefly: MTT assay, UT-SCC 60A. The test is classed as cell-based, human. Particulars: 72 h. On the procedure: as §2, §3
The test system of the next test is HeLa cells. Briefly: Cell-IQ high content imaging, proliferation of HeLa. The test is classed as cell-based, human. Particulars: various doses, till 72 h. On the procedure: (§4) SiHa cells—HPV 16 positive cervical cancer cell line; HeLa—HPV 18 positive cervical cancer cell line. […] Numbers 1-6 on the x-axis indicate 12 h intervals. The area of the plate that cells cover is indicated on the y-axis (arbitrary number of units).
(§5) The Cell-IQ Real-time imaging provides information on how the compounds are affecting cell morphology and cell proliferation at various doses up to 72 h. A rigorous image analysis protocol was developed to assess the effects of the compounds on cell proliferation.
(§6) The cells were imaged by high content imaging in Cell-IQ and the proliferation of the cells was observed till 72 h.

The subject of test [10] is K87 primary skin fibroblast cells. In words: MTT assay, K87 fibroblasts. The test is classed as cell-based, human. The note with it: 72 h. On the procedure: as §2, §3
The test system of test [11] is SiHa cells. Briefly: Phase contrast microscopy of SiHa cells. Particulars: 40 μM. It is filed as cell-based, human. The source says: In order to examine the mechanism underlying the previously reported cytotoxicity of OVT, we investigated if OVT would induce apoptotic death of cultured SiHa cervical cancer cells.
The test system of test [12] is K74 primary skin fibroblast cells. Briefly: MTT assay, K74 fibroblasts. The test is classed as cell-based, human. Particulars: 72 h. On the procedure: as §2, §3
The subject of test [13] is SiHa cells. Briefly: Cell-IQ high content imaging, proliferation of SiHa. Particulars: various doses, till 72 h. It is filed as cell-based, human. On the procedure: as §4, §5, §6
In test [14] the test system is SiHa cells. Briefly: Western blotting of SiHa cell lysates. It is filed as cell-based, human. On the procedure: Whole cell lysates were prepared by lysing the cells in Laemmli sample buffer (Laemmli, 1970) and boiling the samples for 10 min after which proteins were separated in 12.5-15% SDS-PAGE. Western blotting was performed using antibodies against caspase 3 (Cell Signaling), HPV16 E6, E7 (Santa Cruz Biotechnology, Inc, Santa Cruz, Calif.), and […] (clone AC-40; Sigma-Aldrich). Horseradish peroxidase-conjugated secondary antibodies were obtained from Southern Biotechnology Associates (Birmingham, Ala.), Promega (Madison, Wis.) and Amersham Biosciences (Freiburg, Germany). The results were visualized using the ECL method (Amersham Biosciences) on X-ray film. The presented Western blot results are representative of at least three independent experiments. SiHa cervical cancer cells have been transformed by high-risk human papillomavirus (HPV). As E6 and E7 play such critical roles in SiHa cell transformation, the expression of these viral proteins was examined.
Background: Immunoblotting shows a protein as a band on a membrane.

In the case of `C=C1C(=O)OC2/C=C(/C)CC/C=C(\C(=O)O)CC/C=C(\C)CCC12` (stereo not drawn) [Anisomelic acid (AA), Anisomelic acid, reference compound], the pIC50 in [1] was 4.49; in test [2] it was 4.48; in test [5], 4.64; in test [6] it was 4.55; in test [7], 4.62; in test [8], 4.37. The molecule further showed a pIC50 in [9] of 4.75. Besides, the “activation of caspase-3” value in the test on SiHa cells [3] (40 μM, after 48 h) is “marked activation”. The “toxicity to non-cancer human fibroblast cells” value in test [4] is reported as “not toxic at all”.

In the case of Ovatodiolide, the negative-log IC50 (pIC50) was 4.97 in test [1]; 4.97 in [2]; 5.48 in test [5]; 5.11 in test [6]; 6.07 in [7]; 4.71 in test [10]. Also, the values for the negative logarithm of the IC50 (pIC50) in [8], in test [12] and in [9] were 4.85, 4.88 and 5.26, respectively. Further, in the test on SiHa cells [3] (20 μM, after 24 h, compared with 40 μM AA after 48 h), the “activation of caspase-3” value is recorded as “higher activation”. Moreover, the “activation of caspase-3 compared to AA at the same concentration” value in the test with SiHa cells [3] (40 μM, after 48 h) was “almost doubled”. For the same molecule, the cell proliferation entry with HeLa cells and with SiHa cells [13] was “inhibited the cell proliferation” in each case. In the test on SiHa cells [11], the “cell death in SiHa cells” value was “induced cell death”. In addition, the “effect on cell morphology” value with SiHa cells [11] (72 hours, SiHa) is “clear effect on cell morphology”. The “cleavage of caspase-3” value in the test on SiHa cells [14] (20-40 μM) is “induced the cleavage”. Moreover, the “HPV E6 and E7 viral proteins” value in the test on SiHa cells [14] (Western blot) is given as “downregulation”. In addition, in the test on SiHa cells [14] (Western blot), the cIAP2 protein level result is “downregulation”.

As a reminder, the pIC50 is the IC50 on a negative log10 scale, so that one unit is a factor of ten. Lower therefore signals a high IC50.
